Test results: paper PMC4492579, “Potent and Selective Triazole-Based Inhibitors of the Hypoxia-Inducible Factor Prolyl-Hydroxylases with Activity in the Murine Brain” (PLoS ONE, 2015)
Where a name gives a salt, the structure may show the parent alone.

What was measured:
JMJD2A (KDM4A) = biological target: T1, JMJD2A (KDM4A) (Homo sapiens, UniProt O75164); set-up: method as in PMID 26682036; conditions: cited from earlier work
T1 sequence (O75164 1-1064): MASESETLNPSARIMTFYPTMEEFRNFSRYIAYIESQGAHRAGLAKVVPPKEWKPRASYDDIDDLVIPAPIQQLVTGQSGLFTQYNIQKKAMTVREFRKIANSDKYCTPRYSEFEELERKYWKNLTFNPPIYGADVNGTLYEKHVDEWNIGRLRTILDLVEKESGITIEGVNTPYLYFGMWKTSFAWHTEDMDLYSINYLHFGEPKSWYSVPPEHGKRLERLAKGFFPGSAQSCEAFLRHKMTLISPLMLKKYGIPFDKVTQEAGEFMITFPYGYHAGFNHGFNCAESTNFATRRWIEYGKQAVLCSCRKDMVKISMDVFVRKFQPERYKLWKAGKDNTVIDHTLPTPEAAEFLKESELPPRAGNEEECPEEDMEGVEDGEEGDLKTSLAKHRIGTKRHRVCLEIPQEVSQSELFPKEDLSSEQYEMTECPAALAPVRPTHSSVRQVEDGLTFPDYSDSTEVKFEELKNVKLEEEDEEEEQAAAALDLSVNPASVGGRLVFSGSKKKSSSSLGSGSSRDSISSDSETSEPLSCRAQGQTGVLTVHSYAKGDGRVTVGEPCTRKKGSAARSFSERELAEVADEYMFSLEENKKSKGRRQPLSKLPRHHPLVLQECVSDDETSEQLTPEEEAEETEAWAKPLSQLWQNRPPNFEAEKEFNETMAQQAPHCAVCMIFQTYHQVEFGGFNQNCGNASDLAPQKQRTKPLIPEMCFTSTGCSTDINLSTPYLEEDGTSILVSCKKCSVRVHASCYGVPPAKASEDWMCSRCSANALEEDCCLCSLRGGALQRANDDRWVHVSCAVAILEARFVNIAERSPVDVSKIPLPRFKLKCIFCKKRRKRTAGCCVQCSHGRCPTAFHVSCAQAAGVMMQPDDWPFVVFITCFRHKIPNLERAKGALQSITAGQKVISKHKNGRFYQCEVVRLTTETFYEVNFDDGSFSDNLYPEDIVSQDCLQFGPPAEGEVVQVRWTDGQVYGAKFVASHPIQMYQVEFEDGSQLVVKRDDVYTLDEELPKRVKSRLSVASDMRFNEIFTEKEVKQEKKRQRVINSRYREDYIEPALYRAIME

BBOX1 = biological target: T2, BBOX1 (Homo sapiens, UniProt O75936); set-up: method as in PMID 22730246; conditions: cited from earlier work
T2 sequence (O75936 1-387): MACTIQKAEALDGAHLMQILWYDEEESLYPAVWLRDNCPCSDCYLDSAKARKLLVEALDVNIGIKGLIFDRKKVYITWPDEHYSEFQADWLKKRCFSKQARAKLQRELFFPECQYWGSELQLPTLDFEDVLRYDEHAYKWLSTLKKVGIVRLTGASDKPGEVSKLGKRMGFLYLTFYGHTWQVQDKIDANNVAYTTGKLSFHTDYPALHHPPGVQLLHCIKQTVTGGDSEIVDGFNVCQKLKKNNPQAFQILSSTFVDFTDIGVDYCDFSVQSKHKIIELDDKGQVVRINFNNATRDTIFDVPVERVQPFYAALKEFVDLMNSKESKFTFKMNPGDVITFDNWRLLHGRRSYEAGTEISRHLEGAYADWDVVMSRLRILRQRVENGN

FIH = FIH (Homo sapiens, UniProt Q9NWT6); assay: FIH liquid chromatography-mass spectrometry assay (RapidFire)
Experimental: After 15 minutes, the enzyme reaction was stopped by the addition of 4 ml 10% formic acid and the reaction mixture transferred to a RapidFire RF360 high throughput sampling robot. Samples were aspirated under vacuum onto a C4 Solid Phase Extraction (SPE) cartridge. […] Ion chromatogram data was extracted for the non-hydroxylated peptide substrate and the hydroxylated peptide product and peak area data for extracted ion chromatograms were integrated using RapidFire Integrator software. Percentage conversion of substrate to product was calculated in Microsoft Excel and IC50 values were calculated using Graphpad Prism 5.

JMJD2C (KDM4C) = biological target: T3, JMJD2C (KDM4C) (Homo sapiens, UniProt Q9H3R0); set-up: method as in PMID 26682036; conditions: cited from earlier work
T3 sequence (Q9H3R0 1-1056): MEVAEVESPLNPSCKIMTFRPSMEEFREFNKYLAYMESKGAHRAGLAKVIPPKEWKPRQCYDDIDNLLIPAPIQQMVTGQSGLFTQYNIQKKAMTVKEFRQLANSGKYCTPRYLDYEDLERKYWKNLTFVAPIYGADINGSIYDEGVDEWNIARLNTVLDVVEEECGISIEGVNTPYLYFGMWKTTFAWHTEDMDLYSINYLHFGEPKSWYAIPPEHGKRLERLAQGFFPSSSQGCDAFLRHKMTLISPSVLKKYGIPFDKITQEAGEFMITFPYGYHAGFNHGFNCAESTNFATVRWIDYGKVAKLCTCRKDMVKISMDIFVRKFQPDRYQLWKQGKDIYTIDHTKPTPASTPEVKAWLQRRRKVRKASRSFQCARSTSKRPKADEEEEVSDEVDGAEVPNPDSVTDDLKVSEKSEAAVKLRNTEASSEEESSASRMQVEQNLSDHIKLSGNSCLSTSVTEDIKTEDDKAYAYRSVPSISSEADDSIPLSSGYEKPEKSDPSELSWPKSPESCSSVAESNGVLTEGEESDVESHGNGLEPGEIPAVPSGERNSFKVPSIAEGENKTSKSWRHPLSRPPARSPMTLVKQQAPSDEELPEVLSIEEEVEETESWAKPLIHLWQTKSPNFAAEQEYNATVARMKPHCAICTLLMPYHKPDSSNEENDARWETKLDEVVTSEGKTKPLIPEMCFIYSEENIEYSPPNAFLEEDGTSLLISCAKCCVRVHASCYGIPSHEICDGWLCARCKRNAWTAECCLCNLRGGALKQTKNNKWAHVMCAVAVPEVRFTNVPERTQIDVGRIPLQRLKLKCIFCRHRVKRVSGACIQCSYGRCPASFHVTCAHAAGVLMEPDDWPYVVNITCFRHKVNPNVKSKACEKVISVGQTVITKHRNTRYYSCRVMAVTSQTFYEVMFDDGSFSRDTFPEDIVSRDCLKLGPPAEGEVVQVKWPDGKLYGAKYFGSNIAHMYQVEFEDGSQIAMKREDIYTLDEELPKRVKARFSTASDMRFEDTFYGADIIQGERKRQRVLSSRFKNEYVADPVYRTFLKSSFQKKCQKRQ

PHD2 = PHD2 (Homo sapiens, UniProt Q9GZT9); assay: Competition-based NMR reporter ligand displacement assay ([13C]-2OG / [13C]-CODD); format: binding; conditions: 50 μM apo-PHD2, 400 μM Zn(II), 400 μM competitor
Experimental: For 2OG displacement assays, selective ^1H-^13C 1D-HSQC experiments were conducted at 700 MHz using a Bruker Avance III spectrometer equipped with an inverse TCI cryoprobe optimized for ^1H observation. The CLIP-HSQC sequence was used (without ^13C decoupling). Typical experimental parameters were as follows: acquisition time 0.58 s, relaxation delay 2 s, number of transients 256−1600. The 1JCH was set to 160 Hz. For the selective version of the experiment, a 6.8 ms Q3 180 degree pulse was used, and selective irradiation was applied at the appropriate [^13C] chemical shift. Three millimeter MATCH tubes with a 160 μL final sample volume were used. Solutions were buffered using Tris-D11 50 mM (pH 7.5) dissolved in 90% H2O and 10% D2O. Assays were conducted at 298 K in solutions typically containing 50 μM apo-PHD2, 400 μM Zn(II), 50 μM 1,2,3,4-[^13C]-2OG or [^13C]-labeled CODD (uniformly [^13C]-labeled at proline-564) and 400 μM competitor (except unlabeled CODD competitor used at 800 μM). Selective irradiation was applied at 30.5 ppm for [^13C]-2OG and 24.25 ppm for [^13C]-labeled CODD. Percentage displacement was calculated according to equation: (I−I0)/(Iblank−I0) where I 0 is the intensity of the reporter in the presence of protein but without inhibitor, I is the intensity of the reporter in the presence of protein and inhibitor, and I blank is the intensity of the reporter without protein or inhibitor.
The results reveal that the previously described inhibitor IOX2 displaces 2OG from PHD2 (S3A Fig), consistent with its predicted binding mode. […] Previous crystallographic studies have shown that the HIF substrate can still bind even when the 2OG active site is occupied by some, but not all, inhibitors.

HIF1α and HIF2α = assay: HIFα induction in tissues of treated mice (immunoblotting); format: in vivo, C57BL/6 mice; conditions: i.p.
Experimental: All animal experiments were performed on male C57BL/6 mice aged 3 months (purchased from Harlan Laboratories, Blackthorn) housed in specific pathogen free conditions with free access to water and standard chow. Mice were injected intraperitonially with the inhibitor (dissolved in Hanks’ buffered saline solution, pH 7.0, 5% DMSO final) or vehicle at the indicated doses for the indicated time as previously described. Tissues from treated mice were harvested and ‘snap frozen’ with liquid nitrogen before being stored at -80°C. For immunoblotting, a portion of the tissues was removed, weighed and homogenised in urea/SDS buffer before being analysed by immunoblotting with HIF1α rabbit polyclonal antibody (10006421, Cayman Chemical, 1:1000) or HIF2α rabbit polyclonal antibody (PM9 [27], 1:1000). For RNA extraction, tissues were ‘snap frozen’ in liquid nitrogen immediately after harvesting, then ground to a fine powder using a cryogenic tissue pulveriser, keeping samples on dry ice at all times and processed for total RNA extraction using the mirVana miRNA isolation kit (AM1560, Life Technologies) according to the manufacturer’s protocol for processing frozen tissues. All animal procedures were compliant with the UK Home Office Animals (Scientific Procedures) Act 1986 and Local Ethical Review Procedures (University of Oxford Medical Sciences Division Ethical Review Committee).
The inhibitors or vehicle controls were injected intraperitonially into wild type C57BL/6 mice and sacrificed after the indicated treatment time before harvesting their tissues to be analysed for HIFα levels by immunoblotting.

[1] = 1 h, equimolar: IOX2 37.7 mg/kg, IOX4 35 mg/kg, DMOG 75 mg/kg

Sequence of PHD2 (Q9GZT9 whole entry): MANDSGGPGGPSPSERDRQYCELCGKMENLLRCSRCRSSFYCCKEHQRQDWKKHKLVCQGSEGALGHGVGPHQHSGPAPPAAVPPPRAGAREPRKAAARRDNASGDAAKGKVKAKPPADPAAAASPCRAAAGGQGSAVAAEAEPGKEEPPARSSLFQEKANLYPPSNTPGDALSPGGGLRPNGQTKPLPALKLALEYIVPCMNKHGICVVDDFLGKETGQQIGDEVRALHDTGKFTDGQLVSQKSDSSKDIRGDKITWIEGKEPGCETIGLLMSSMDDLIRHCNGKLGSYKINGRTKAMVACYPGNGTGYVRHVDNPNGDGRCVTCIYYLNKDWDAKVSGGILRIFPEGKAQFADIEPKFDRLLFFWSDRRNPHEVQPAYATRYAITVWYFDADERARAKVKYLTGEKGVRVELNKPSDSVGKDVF
Sequence of FIH (Q9NWT6 whole entry): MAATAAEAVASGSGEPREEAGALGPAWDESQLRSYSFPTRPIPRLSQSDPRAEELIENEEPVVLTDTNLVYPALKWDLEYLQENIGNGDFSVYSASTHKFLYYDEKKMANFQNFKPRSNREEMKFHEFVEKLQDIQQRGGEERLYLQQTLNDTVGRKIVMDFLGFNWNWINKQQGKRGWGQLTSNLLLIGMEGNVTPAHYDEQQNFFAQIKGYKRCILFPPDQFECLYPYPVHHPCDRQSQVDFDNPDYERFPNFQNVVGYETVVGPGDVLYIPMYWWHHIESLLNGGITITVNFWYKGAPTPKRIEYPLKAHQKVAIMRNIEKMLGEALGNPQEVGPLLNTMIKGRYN

## O=C(O)c1ccc(-n2[nH]cc(-n3ccnn3)c2=O)nc1 (as salt: hydrochloride) [compound 1, 6-(5-oxo-4-(1H-1,2,3-triazol-1-yl)-2,5-dihydro-1H-pyrazol-1-yl)pyridine-3-carbocylic acid hydrochloride]
other
  melting point: ≥ 316.6 °C (dec.)

## O=C(O)CNC(=O)C(=O)O [NOG, N-oxalylglycine]
JMJD2A (KDM4A)
  IC50: 200 nM
BBOX1
  IC50: 390 nM
FIH
  IC50: 2300 nM
JMJD2C (KDM4C)
  IC50: 600 nM

## O=C(O)Cc1cs/c(=N/C(=O)CS(=O)(=O)Cc2ccc3ccccc3c2)n1O [BNS, bicyclic naphthalenylsulfone hydroxythiazole]
PHD2
  displacement of [13C]-2OG from PHD2: displace both 2OG and CODD
  displacement of [13C]-CODD from PHD2: displace both 2OG and CODD

## O=C(O)CNC(=O)c1nc(Cl)c2ccccc2c1O [IOX3]
HIF1α and HIF2α; IOX2 37.7 mg/kg, IOX3 30 mg/kg (equivalent molar dose), 1 h and […]
  HIF1α induction in mouse liver: lower and shorter induction of HIF1α

## COC(=O)CNC(=O)C(=O)OC [DMOG, dimethyloxalylglycine]
HIF1α and HIF2α; [1]
  HIF1α and HIF2α induction in liver, kidney and heart: induction of HIF1α and HIF2α
  HIF1α and HIF2α induction in the brain: not
